# Experimental data published in US20250052765A1, “Nanobody Discovery Platform and Related Methods” (Carnegie Mellon University, priority 2021, published 2025).
# Key:
# LaG18/GFP strain = settings: 300 nM TD during cell culture; bleached for 90 sec at 525 nm
# Description: Flow cytometer histograms of LaG18/GFP strain labeled during cell culture with 300 nM TD. Mean values are shown; unbleached (red), bleached for 90 sec at 525 nm (blue), and unlabeled control cells (orange).
# Description for NB/TPD complexes: Green numbers are NB-gFAP signal; red numbers are TPD-rFAP signals. In vivo, cells treated with 300 nM TD during 3-day cell culture; in vitro, cells treated with TD after harvest in assay buffer for 4 hours.
# The green emitting fluorogen activating protein (gFAP) is genetically fused using GG assembly 3′ to each NB (NB-gFAP) where the gFAP may be ScFvl or AM2-2; the red emitting FAP (rFAP) is fused 3′ to each TPD (TPD-rFAP) where the rFAP is dL5. […] If co-expressed NB and TPD specifically bind one another, the TPD-rFAP will be captured on the surface of the co-expressing cell. However, its residence will be finite as determined by the binding affinity of the NB/TPD complex; most of the TPD-rFAP will be lost into the medium over the 3 day period of cell culture. […] This enables quantitative self-reporting of the presence of the NB/TPD complex as a ratio of red to green fluorescence. FACS will then be used to isolate cells displaying the complex.
# The secreted ectodomain TPD-rFAP fusions are initially sequestered within the yeast periplasmic space and/or inner cell wall, and upon buffer treatment released to outer cell surface over the course of a few hours (FIG. 22). […] A second feature of TDs is that they can be successfully applied to cells post-harvest instead of the usual inclusion of TDs in growth medium for 3 days.
substance,measurement,setting,value
sulfonate TO1-PEG3500-MG,loss of rFAP/MG (TPD) signal after bleaching TO1 end of TD,LaG18/GFP strain,about half of the rFAP/MG signal is lost
same,binding affinities of NB/TPD complexes efficiently locked/captured on the yeast cell surface,NB/TPD complexes,≤ 20 µM
